Literature values, collected in patent EP1886664A1, “N-chloroamines containing compositions” (priority 2006, dated 2008).
Read-outs that look alike come from different tables or passages of the source.

Tests used:
[1] = according to Buckley
[2] = tested on: Bacteria, Viruses, Fungi, Seaweed, Yeasts, Parasite
[3] = tested on: bacterial flora in the oral cavity
[4] = tested on: mouse; details: inhalation, 4 hours, maximum reached concentration
[5] = tested on: Skin; details: solution under 8%
[6] = tested on: Eye
[7] = tested on: mouse; details: after 90 days
[8] = tested on: microbacteria

Row | SMILES | antiseptic power compared to hypochlorites [1] | activity compared to Dakin's liquid ([1]; in the presence of blood) | biocide action ([2]; including viruses and microbacteria in the vegetative form either spori or not) | activity against microorganisms ([2]; organisms listed in the 1st table, the 2nd table and b31) | duration of antiseptic action when applied as a therapeutics ([3]; in vivo) [h] | duration of strong sustainable effect after application ([3]; mouthrinse) | fraction still active (ambient with organic matter and microorganisms, after 24 hours) | activity lost due to decomposition (solution under 5%, opaque container, 25°C, 210 days) | decomposed (solutions under 0.5%, 30 days, 40°C) [%] | LC 50 [4] [µg/mL] | Irritation, Skin [5] | Irritation, Eye ([6]; Solution under 0.5%) | Irritation, Eye ([6]; solution under 8%) | oral toxicity, level at which nothing was observed [7] [mg/kg/day] | sporicide, viruscide and microbacteria activity [8]
1 | Cc1ccc(S(=O)(=O)NCl)cc1 [T-chloramine, sodium N-chloro-para-toluenesulfamide] | four times higher than that of hypochlorites | more active than the Dakin's liquid | biocide action against all forms of microorganisms | active | 24 | at least one | approximately half | less than 0.05% | 0.01 | > 0.275 | not irritating | not irritating | moderately irritating | 15 | –
2 | N=C(NCCCCCCNC(=N)NC(=N)Nc1ccc(Cl)cc1)NC(=N)Nc1ccc(Cl)cc1 [chlorexidine] | – | – | – | – | – | – | – | – | – | – | – | – | – | – | neither a sporicide, neither a viruscide and nor active against microbacteria
